Values joined by “and” are separate entries in the source; they are usually repeats but may differ in a detail not shown here. Identical values can stand only once. Like-named read-outs stand apart in the source and are kept apart here.
Columns and labels:
LasR [1] = molecular target: T1, LasR (Pseudomonas aeruginosa, UniProt P25084); details: in E. coli, related reporter constructs; cited from earlier work
LasR [2] = molecular target: T1, LasR; details: in P. aeruginosa, related reporter constructs; cited from earlier work
LasR [3] = molecular target: T1, LasR; format: cell-based, P. aeruginosa; details: for Fold change of IC50: IC50 in PAO-JP2 vs PAO-JG21
wild-type P. aeruginosa = details: cited from earlier work
LasR [4] = molecular target: T1, LasR; test: LasR competitive antagonism reporter assay in pump-mutant PAO-JG21; format: cell-based, P. aeruginosa; details: PAO-JG21, 25 µg/mL PAβN

T1 sequence (P25084 whole entry): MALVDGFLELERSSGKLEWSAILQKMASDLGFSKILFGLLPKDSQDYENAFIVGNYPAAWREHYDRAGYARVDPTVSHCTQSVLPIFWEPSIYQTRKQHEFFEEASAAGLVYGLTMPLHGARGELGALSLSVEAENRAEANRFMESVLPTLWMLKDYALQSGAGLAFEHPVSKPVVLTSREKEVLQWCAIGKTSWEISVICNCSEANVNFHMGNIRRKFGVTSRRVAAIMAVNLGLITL

Compound	inhibition of LasR activity (LasR [1])	inhibition of LasR activity (LasR [2])	Fold change of IC50 (LasR [3])	inhibition of pyocyanin production (wild-type P. aeruginosa)	effect of pump inhibitor PAβN on LasR inhibitory potency (LasR [4])	effect of pump inhibitor PAβN on LasR inhibitory potency (LasR [3]; PAO-JP2, 25 µg/mL PAβN)	maximum inhibition of LasR activity (LasR [3]; PAO-JP2 harboring plasI-LVAgfp, dose-response (Figure S-14))
CCCCCCCCCC(=O)CC(=O)Nc1ccccc1 [3-oxo-C12-aniline]	55%	30%	6.5	strongly inhibiting pyocyanin production	–	–	–
Cc1cc2nc(N)[nH]c2cc1C [DMABI, 5,6-dimethyl-2-aminobenzimidazole]	–	–	1.6	–	no effect	no effect	~ 40% and 40%

From paper PMC3969711 (Chembiochem : a European journal of chemical biology, 2014)
